Experiment [1] concerns the target T1, EGFR (d746-750) (Homo sapiens, UniProt P00533, DEL746-750).
T1 construct: purchased SignalChem E10-122JG
The experiment is described as follows: Biochemical EGFR inhibition assay (Caliper mobility shift), EGFR (d746-750). Conditions: biochemical Caliper mobility shift assay, EGFR Exon 19-del enzyme; read-out: Enz EGFR Exon 19-del IC50. The protocol: Inhibitory effects of the compounds of the disclosure were measured in biochemical assays that measure the phosphorylation activity of EGFR enzyme phosphorylates 2.5 micromolar 5-FAM-[…]-CONH2 peptide substrate (ProfilerPro Kinase Peptide Substrate 22, PerkinElmer, Part #760366) in the presence of adenosine-5′-triphosphate (ATP) and varying concentrations of the test compound in 100 mM 2-[4-(2-hydroxyethyl)piperazin-1-yl]ethanesulfonic acid (HEPES), pH 7.5, 10 mM MgCl2, 0.015% Brij-35, 1 mM dithiothreitol (DTT), 1.0% dimehylsulfoxide (DMSO). Assays were performed at 1.0 mM ATP or at ATP Km of the EGFR enzymes. Reactions proceeded until between 10% to 20% total peptides were phosphorylated at room temperature (25° C.) and were terminated with 35 mM 2,2′,2″,2′″-(ethane-1,2-diyldinitrilo)tetraacetic acid (EDTA). Product was detected using the Caliper mobility shift detection method where the phosphorylated peptide (product) and substrate were electrophoretically separated and measured. Percent activity was plotted against log concentration of compound and points to generate an apparent IC50. The following enzyme forms of • EGFR were examples that were used in these assays: • EGFR WT (SignalChem, E10-112G) • EGFR L858R (SignalChem, E10-122BG) • EGFR (d746-750) (SignalChem, E10-122JG) • EGFR L858R C797S (SignalChem, E10-122ZG) • EGFR (d746-750) C797S (SignalChem, E10-122TG)

The target of experiment [2] is intracellular phosphorylation of EGFR (Tyr1068) in PC-9 cells (Homo sapiens, UniProt P00533, DEL746-750). The experiment in a line: PC-9 pEGFR AlphaLISA assay. Format: cell-based. Conditions: 4 hours incubation, read-out: Phos EGFR PC9 IC50. The procedure:
PC-9/A431 pEGFR AlphaLISA Assays
Inhibitory effects of compounds were evaluated in cellular assays that measure level of intracellular phosphorylation of EGFR in PC-9 (ECACC, #90071810, Milipore/Sigma) and A431 cell lines (ATCC, CRL-1555) using AlphaLISA sureFire ultra p-EGFR (Tyr1068) assay kit (PerkinElmer, ALSU-PEGFR-A50K). PC-9 cells were seeded at 3.125×10^5 cells/ml in 40 μL phenol-free DMEM supplemented with 10% FBS per well of a 384 well plate (Corning, 3764), while A431 were seeded at […] in 40 μL in phenol-free DMEM with 0.5% FBS. Cells were allowed to adhere overnight at 37° C./5% CO2. On the next day, compounds were transferred at 4-fold, 10-point serial dilution from compound source plate to cell plates using liquid handler Echo550 and were incubated at 37° C./5% CO2 for 4 hours. A431 cells were stimulated prior harvesting for 10 min with EGF at final concentration of 30 ng/ml in the incubator. Medium was removed from the plates and cells were lysed with 10 μL of 1× AlphaLISA lysis buffer (supplemented with 1× protease/phosphatase inhibitor cocktail) followed by shaking at 600 rpm for 30 minutes at room temperature. Lysates were transferred to Optiplate (Apricot designs) and 5 ul of 1× acceptor bead mix (prepared just before use) was added to each well followed by incubation at room temperature for 1.5-2 h in dark. Then 5 μL of freshly-made donor bead mix is added to each well under subdued lighting or green filters, was mixed well on the shaker and the plate was sealed and left for an overnight incubation at room temperature in dark. On the next day, the plate was read the Envision using standard AlphaLisa settings. Percent of pEGFR inhibition was plotted against log concentration of compounds to generate IC50 values.

The target of experiment [3] is T2, EGFR L858R (Homo sapiens, UniProt P00533, L858R).
T2 construct: purchased SignalChem E10-122BG
T2 sequence (P00533 25-1210 L858R): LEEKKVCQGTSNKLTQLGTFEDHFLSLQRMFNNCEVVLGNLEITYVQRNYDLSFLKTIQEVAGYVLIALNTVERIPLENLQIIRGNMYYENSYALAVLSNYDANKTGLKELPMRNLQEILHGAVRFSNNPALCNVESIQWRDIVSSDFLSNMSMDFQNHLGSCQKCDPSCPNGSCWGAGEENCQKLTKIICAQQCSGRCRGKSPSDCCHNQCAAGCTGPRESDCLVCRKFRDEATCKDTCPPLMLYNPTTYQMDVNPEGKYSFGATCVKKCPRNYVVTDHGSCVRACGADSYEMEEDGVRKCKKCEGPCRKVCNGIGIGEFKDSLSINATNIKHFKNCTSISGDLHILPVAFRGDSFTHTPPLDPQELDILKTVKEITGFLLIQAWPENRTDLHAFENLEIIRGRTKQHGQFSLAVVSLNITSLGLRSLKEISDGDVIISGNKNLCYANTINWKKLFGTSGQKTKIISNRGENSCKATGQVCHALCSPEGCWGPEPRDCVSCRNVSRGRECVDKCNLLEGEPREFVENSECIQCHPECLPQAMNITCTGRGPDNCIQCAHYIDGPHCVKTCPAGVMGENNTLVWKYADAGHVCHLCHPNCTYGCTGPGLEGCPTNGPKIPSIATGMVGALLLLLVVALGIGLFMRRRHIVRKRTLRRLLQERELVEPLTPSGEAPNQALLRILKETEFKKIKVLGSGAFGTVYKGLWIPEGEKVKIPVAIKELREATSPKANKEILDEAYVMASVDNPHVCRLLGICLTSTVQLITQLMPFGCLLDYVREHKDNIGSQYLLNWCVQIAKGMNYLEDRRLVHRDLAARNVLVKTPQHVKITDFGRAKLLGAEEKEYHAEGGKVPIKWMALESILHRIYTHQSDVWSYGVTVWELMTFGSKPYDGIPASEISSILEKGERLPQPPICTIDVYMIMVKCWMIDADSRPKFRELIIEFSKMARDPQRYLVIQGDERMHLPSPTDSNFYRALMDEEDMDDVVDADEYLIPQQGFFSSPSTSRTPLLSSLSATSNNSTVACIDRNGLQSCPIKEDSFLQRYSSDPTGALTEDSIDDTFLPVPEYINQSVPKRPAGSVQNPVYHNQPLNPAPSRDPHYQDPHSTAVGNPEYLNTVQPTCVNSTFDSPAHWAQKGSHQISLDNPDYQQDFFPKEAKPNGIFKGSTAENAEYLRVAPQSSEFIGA
The experiment is described as follows: Biochemical EGFR inhibition assay (Caliper mobility shift), EGFR L858R. Particulars: biochemical Caliper mobility shift assay, EGFR L858R enzyme; read-out: Enz EGFR L858R IC50. Put shortly:
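Compounds were titrated against enzyme phosphorylating a 5-FAM peptide (2.5 µM) in 100 mM HEPES, pH 7.5, 10 mM MgCl2, 1 mM DTT. ATP was held at 1.0 mM or at Km, and reactions ran at 25 °C until 10–20% conversion before EDTA quench. Apparent IC50 values come from percent activity plotted against log concentration.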

T1 sequence (P00533 with tags, fused parts or gaps DEL746-750 limits assumed): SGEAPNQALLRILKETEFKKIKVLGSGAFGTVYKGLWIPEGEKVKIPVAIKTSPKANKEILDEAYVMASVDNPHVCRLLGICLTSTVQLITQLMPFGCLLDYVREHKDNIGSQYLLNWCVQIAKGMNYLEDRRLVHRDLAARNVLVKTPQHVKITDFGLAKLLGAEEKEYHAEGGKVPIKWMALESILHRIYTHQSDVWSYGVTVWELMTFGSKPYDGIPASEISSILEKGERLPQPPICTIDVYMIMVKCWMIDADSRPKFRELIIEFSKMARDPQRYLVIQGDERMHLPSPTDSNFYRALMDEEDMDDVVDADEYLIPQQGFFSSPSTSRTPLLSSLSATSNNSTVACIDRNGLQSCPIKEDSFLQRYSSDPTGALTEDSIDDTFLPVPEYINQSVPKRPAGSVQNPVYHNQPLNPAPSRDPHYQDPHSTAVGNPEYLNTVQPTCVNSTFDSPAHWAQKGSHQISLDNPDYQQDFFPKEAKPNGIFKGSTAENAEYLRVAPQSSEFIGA
Sequence of intracellular phosphorylation of EGFR (Tyr1068) in PC-9 cells (P00533 with tags, fused parts or gaps DEL746-750): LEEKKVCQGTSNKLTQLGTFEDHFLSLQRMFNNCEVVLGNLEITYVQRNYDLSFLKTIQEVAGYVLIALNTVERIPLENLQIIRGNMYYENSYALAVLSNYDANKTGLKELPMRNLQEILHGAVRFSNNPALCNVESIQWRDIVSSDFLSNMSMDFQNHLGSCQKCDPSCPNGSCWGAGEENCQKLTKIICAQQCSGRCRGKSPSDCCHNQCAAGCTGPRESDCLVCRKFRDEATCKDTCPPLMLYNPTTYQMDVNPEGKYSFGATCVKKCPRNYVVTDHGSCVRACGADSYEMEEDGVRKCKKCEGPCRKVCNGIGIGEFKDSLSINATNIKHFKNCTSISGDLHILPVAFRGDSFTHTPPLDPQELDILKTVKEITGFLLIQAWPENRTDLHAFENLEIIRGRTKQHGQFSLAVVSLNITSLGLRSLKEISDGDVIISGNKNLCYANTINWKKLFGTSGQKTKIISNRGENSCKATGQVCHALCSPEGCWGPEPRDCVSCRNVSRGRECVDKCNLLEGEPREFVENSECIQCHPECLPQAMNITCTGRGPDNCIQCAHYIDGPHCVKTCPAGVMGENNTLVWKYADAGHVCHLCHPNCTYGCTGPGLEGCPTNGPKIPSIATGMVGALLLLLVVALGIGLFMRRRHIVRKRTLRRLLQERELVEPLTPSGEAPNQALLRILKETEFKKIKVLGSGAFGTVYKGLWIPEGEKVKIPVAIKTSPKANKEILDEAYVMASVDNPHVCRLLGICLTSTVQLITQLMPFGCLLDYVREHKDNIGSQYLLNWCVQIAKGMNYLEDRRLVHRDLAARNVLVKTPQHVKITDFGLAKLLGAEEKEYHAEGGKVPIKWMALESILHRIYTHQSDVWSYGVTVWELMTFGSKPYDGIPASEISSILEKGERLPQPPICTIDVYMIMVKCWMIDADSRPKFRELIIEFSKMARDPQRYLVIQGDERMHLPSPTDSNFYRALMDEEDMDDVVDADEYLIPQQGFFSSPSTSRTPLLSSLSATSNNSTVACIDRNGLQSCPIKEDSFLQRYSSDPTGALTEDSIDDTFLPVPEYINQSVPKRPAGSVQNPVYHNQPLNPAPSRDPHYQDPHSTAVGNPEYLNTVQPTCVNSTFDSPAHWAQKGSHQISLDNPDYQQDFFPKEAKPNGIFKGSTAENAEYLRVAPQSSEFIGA

Turning to `CN(C)[C@H]1CC[C@H]1Oc1cc(-c2cnn(C)c2)cc2ncnc(Nc3ccc4ncsc4c3)c12` (racemic) [Example A50, N-(5-((1R,2S)-2-(dimethylamino)cyclobutoxy)-7-(1-methyl-1H-pyrazol-4-yl)quinazolin-4-yl)benzo[d]thiazol-6-amine], the IC50 in experiment [1], in experiment [2] and in experiment [3] was at most 10 nM throughout.

`COc1cc2c(Nc3ccc4ncsc4c3F)ncnc2cc1-c1cn(C)nc1OC` [Example 264, 7-fluoro-N-(6-methoxy-7-(3-methoxy-1-methyl-1H-pyrazol-4-yl)quinazolin-4-yl)benzo[d]thiazol-6-amine]: the IC50 in experiment [1] was at most 10 nM; in experiment [2], 10.1 to 50 nM; in experiment [3], at most 10 nM.

As for `Cn1cc(-c2cc(O[C@@H]3CC[C@H](O)C3)c3c(Nc4ccc5ncsc5c4)ncnc3c2)cn1` [Example 411, (1S,3R)-3-((4-(benzo[d]thiazol-6-ylamino)-7-(1-methyl-1H-pyrazol-4-yl)quinazolin-5-yl)oxy)cyclopentan-1-ol], the IC50 in experiment [1], in experiment [2] and in experiment [3] was at most 10 nM each time.

On to `C[C@H](CO)Oc1cc(N2CCN(C)CC2)cc2ncnc(Nc3ccc4ncsc4c3F)c12` (single isomer, unassigned) [Example 295], for which the half-maximal inhibitory concentration (IC50) in experiment [1] was at most 10 nM; in experiment [2], at most 10 nM; in experiment [3] it was 10.1 to 50 nM.

Consider `CC(C)N1CCN(c2cc(OC3CCOCC3)c3c(Nc4ccc5ncsc5c4)ncnc3c2)C1=O` [Example 194, 1-(4-(benzo[d]thiazol-6-ylamino)-5-((tetrahydro-2H-pyran-4-yl)oxy)quinazolin-7-yl)-3-isopropylimidazolidin-2-one], for which the IC50 in experiment [1], in experiment [2] and in experiment [3] was at most 10 nM each time.

`COc1cc2ncnc(Nc3ccc4ncsc4c3)c2cc1-c1cnn([C@H]2CCN(C)C[C@@H]2F)c1` (racemic) [Example 169, trans-N-(6-(1-((3S,4S)-3-fluoro-1-methylpiperidin-4-yl)-1H-pyrazol-4-yl)-7-methoxyquinazolin-4-yl)benzo[d]thiazol-6-amine]: the IC50 is at most 10 nM in experiment [1], 10.1 to 50 nM in experiment [2] and at most 10 nM in experiment [3].

Regarding `COc1nn(C)cc1-c1cc(O[C@H]2CCN(C)C[C@H]2F)c2c(Nc3ccc4ncsc4c3)ncnc2c1` [Example 364, N-(5-(((3R,4S)-3-fluoro-1-methylpiperidin-4-yl)oxy)-7-(3-methoxy-1-methyl-1H-pyrazol-4-yl)quinazolin-4-yl)benzo[d]thiazol-6-amine], the half-maximal inhibitory concentration (IC50) in experiment [1], in experiment [2] and in experiment [3] was at most 10 nM throughout.

As for `Cn1cc(-c2cc(O[C@H]3CCNC[C@H]3F)c3c(Nc4ccc5ncsc5c4)ncnc3c2)c(OC(F)F)n1` [Example 366, N-(7-(3-(difluoromethoxy)-1-methyl-1H-pyrazol-4-yl)-5-(((3R,4S)-3-fluoropiperidin-4-yl)oxy)quinazolin-4-yl)benzo[d]thiazol-6-amine], the IC50 was at most 10 nM in experiment [1], at most 10 nM in experiment [2] and 10.1 to 50 nM in experiment [3].

With `COC[C@H](C)Oc1cc(N2CCN(C(C)C)C2=O)cc2ncnc(Nc3ccc4ncsc4c3)c12` (single isomer, unassigned) [Example 118], the IC50 in experiment [1], in experiment [2] and in experiment [3] was at most 10 nM in each case.

As for `COc1cc(O[C@H](C)C2COC2)c2c(Nc3ccc4ncsc4c3)ncnc2c1` [Example 124, (R)-N-(7-methoxy-5-(1-(oxetan-3-yl)ethoxy)quinazolin-4-yl)benzo[d]thiazol-6-amine], the IC50 in experiment [1] was at most 10 nM; in experiment [2], 10.1 to 50 nM; in experiment [3], at most 10 nM.

For the compound `CCN1CCN(C(=O)Nc2cc3c(Nc4ccc5ncsc5c4)ncnc3cc2-c2ccn(C)n2)[C@H](C)C1` [Example 397, (R)-N-(4-(benzo[d]thiazol-6-ylamino)-7-(1-methyl-1H-pyrazol-3-yl)quinazolin-6-yl)-4-ethyl-2-methylpiperazine-1-carboxamide], the IC50 in experiment [1], in experiment [2] and in experiment [3] was at most 10 nM throughout.

As to `[2H]C([2H])([2H])Oc1cc(O[C@H](C)C2COC2)c2c(Nc3ccc4ncsc4c3F)ncnc2c1` [Example 130, (R)-7-fluoro-N-(7-(methoxy-d3)-5-(1-(oxetan-3-yl)ethoxy)quinazolin-4-yl)benzo[d]thiazol-6-amine], the IC50 in experiment [1], in experiment [2] and in experiment [3] was at most 10 nM throughout.

Turning to `Cn1cc(-c2cc3ncnc(Nc4ccc5ncsc5c4F)c3cc2OC2CCOC2)cn1` (stereo not drawn) [Example 261, 7-fluoro-N-(7-(1-methyl-1H-pyrazol-4-yl)-6-((tetrahydrofuran-3-yl)oxy)quinazolin-4-yl)benzo[d]thiazol-6-amine], the IC50 in experiment [1], in experiment [2] and in experiment [3] was at most 10 nM each time.

Turning to `C[C@@H](Oc1cc(-c2cnn(C)c2)cc2ncnc(Nc3ccc4ncsc4c3)c12)C(CO)CN(C)C` (mixture of isomers) [Example A55, rac-(3R)-3-((4-(benzo[d]thiazol-6-ylamino)-7-(1-methyl-1H-pyrazol-4-yl)quinazolin-5-yl)oxy)-2-((dimethylamino)methyl)butan-1-ol], the IC50 in experiment [1], in experiment [2] and in experiment [3] was at most 10 nM each time.

Turning to `CN1CCC2(COC2)C(Oc2cc(-c3cnn(C)c3)cc3ncnc(Nc4ccc5ncsc5c4)c23)C1` (stereo not drawn) [Example 352, N-(7-(1-methyl-1H-pyrazol-4-yl)-5-((7-methyl-2-oxa-7-azaspiro[3.5]nonan-5-yl)oxy)quinazolin-4-yl)benzo[d]thiazol-6-amine], the IC50 in experiment [1], in experiment [2] and in experiment [3] was at most 10 nM throughout.

Regarding `CN1CC[C@H](Oc2cc(-c3cnn(C)c3)cc3ncnc(Nc4ccc5ncsc5c4)c23)[C@@H](F)C1` (racemic) [Example 343, trans-N-(5-(((3S,4S)-3-fluoro-1-methylpiperidin-4-yl)oxy)-7-(1-methyl-1H-pyrazol-4-yl)quinazolin-4-yl)benzo[d]thiazol-6-amine], the IC50 in experiment [1], in experiment [2] and in experiment [3] was at most 10 nM each time.

For `Cn1cc(-c2cc(O[C@H]3CC[C@@H](N)CC3)c3c(Nc4ccc5ncsc5c4)ncnc3c2)cn1` [Example A09, N-(5-(((1s,4s)-4-aminocyclohexyl)oxy)-7-(1-methyl-1H-pyrazol-4-yl)quinazolin-4-yl)benzo[d]thiazol-6-amine], the IC50 in experiment [1], in experiment [2] and in experiment [3] was at most 10 nM in each case.

`CC[C@H](Oc1cc(-c2cnn(C)c2)cc2ncnc(Nc3ccc4ncsc4c3F)c12)C1CN(C)C1` (single isomer, unassigned) [Example 390]: the 50% inhibitory concentration (IC50) in experiment [1], in experiment [2] and in experiment [3] was over 50.1 nM each time.

Turning to `CN(C)C[C@H](Oc1cc(-c2cnn(C)c2)cc2ncnc(Nc3ccc4ncsc4c3)c12)C(F)(F)F` (single isomer, unassigned) [Example 178], the IC50 in experiment [1], in experiment [2] and in experiment [3] was at most 10 nM throughout.

For the origin of these results see patent publication US20260207602A1, “EGFR INHIBITORS” (Blueprint Medicines Corporation, priority 2022, published 2026).
